From patent publication US5532267A, “Amidinonaphthyl furancarboxylate derivatives and acid addition salts therof” (Torii & Co., Ltd., priority 1992, dated 1996)

Tests used:
trypsin = target: T1, trypsin (Bos taurus, UniProt P00760); test: anti-trypsin activity, hydrolysis of TAME (tosylarginine methyl ester); format: biochemical
T1 sequence (P00760 24-246): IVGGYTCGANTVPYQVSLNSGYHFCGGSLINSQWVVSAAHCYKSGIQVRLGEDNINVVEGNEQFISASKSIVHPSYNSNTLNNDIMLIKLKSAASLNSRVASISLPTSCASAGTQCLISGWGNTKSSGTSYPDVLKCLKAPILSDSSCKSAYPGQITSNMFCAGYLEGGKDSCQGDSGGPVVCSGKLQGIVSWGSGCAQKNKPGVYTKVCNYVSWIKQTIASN

plasmin = plasmin (Homo sapiens, UniProt P00747); test: anti-plasmin activity, hydrolysis of TAME (tosylarginine methyl ester); format: biochemical; settings: hydrolysis of TAME; read-out: Pla: molar concentration inhibiting 50% of enzyme activity (IC50)
Protocol: (§1) The values in Table 1 represent molar concentrations (IC50) of test compounds which inhibit 50% of the activity of each enzyme to hydrolyze TAME (tosylarginine methyl ester). The anti-trypsin, anti-plasmin, anti-kallikrein and anti-thrombin activities were determined according to the method of Muramatsu et al. (J. Biochem. (1965), volume 58, page 214).

kallikrein = test: anti-kallikrein activity, hydrolysis of TAME (tosylarginine methyl ester); format: biochemical
Protocol: as §1

thrombin = thrombin (Homo sapiens, UniProt P00734); test: anti-thrombin activity, hydrolysis of TAME (tosylarginine methyl ester); format: biochemical
Protocol: as §1

adjuvant arthritis = test: Effectiveness in treating adjuvant arthritis (Mycobacterium butyricum); format: in vivo, rat; settings: 60 mg/kg, oral, day -1 to day 13
Protocol: Adjuvant arthritis is known as a representative model of autoimmune diseases and is a effective means of testing agents to treat human rheumatoid arthritis (Encyclopedia of Immunology, edited by I. M. Roitt, Academic Press, 1992; Otterness, I. G., et al., J. of Rheumatology (1991), volume 18, pages 505-511),
The method of experiment was as follows. A 0.6% Mycobacterium butyricum liquid paraffin suspension, 0.1 ml/animal, was administered to a rat at a subcutaneous site of left hind-limb sole to induce adjuvant arthritis. The present compound was orally administered (in the form of a suspension in water) consecutively from 1 day before the induction to 13 days after the induction. The efficacy of the present compound on adjuvant arthritis was evaluated by examining the swelling accompanied by red spots and subcutaneous knots at the fore-limb, hind-limb, tail, ear and periphery of eye with the lapse of days (on the 8th, 10th, 12th, 14th, 16th and 18th days after adjuvant administration), expressing the results in terms of scores according to the method of F. D. Wood et al. (Int. Arch. Allergy (1969), volume 35, pages 456-467), and calculating the percentage inhibition relative to the control group. Thus, the higher value of percentage inhibition indicates the higher effectiveness.

Masugi's nephritis = test: Effectiveness in treating Masugi's nephritis (experimental glomerulonephritis), protein in urine; format: in vivo, rat; settings: po, 30 mg/kg
Protocol: […] […] As the index to effectiveness, the protein concentration in urine was determined. That is, when inflammation develops in the kidney, it causes damage to renal tubules, etc., and a resultant increase in protein concentration in urine.

[1] = test system: rabbit serum albumin (RSA) nephritis; test: Effect of TO-195 on rabbit serum albumin (RSA) nephritis; format: in vivo, rat (Sprague Dawley); settings: oral
Source text: About 90% of human glomerular nephritis has been described as being immune complex nephritis which is caused by deposition in the glomeruli of immune complexes formed by the binding of antigens with antibodies in the blood. Effectiveness in treating rabbit serum albumin (RSA) nephritis in rats, which is known as an experimental model of nephritis caused by antigen-antibody reaction (Folia pharmacol. japon, 78: 491-499 (1981)), is shown below:
Sprague Dawley rats were immunized by subcutaneous injection in the back of 3 mg rabbit serum albumin in complete Freud's adjuvant (CFA). Two weeks after the subcutaneous injection, the rats were administered 1 mg of RSA (in saline) into the tail vein every other day for 10 weeks. Seven weeks after the first subcutaneous injection, the rats were also boosted with 3 mg RSA as in the first subcutaneous injection. The control group was injected with saline. Two weeks after the first IV injection, rats with more than 100 mg/day proteinurea after IV administration of RSA were divided into two groups each consisting of five rats. One group was orally given 30 mg/kg of TO-195 (in a suspension in water) twice a day for 20 days. The other group (untreated) and the control group were given distilled water p.o. (oral administration). The index of effectiveness of TO-195 was protein concentration in urine.

in vivo = settings: rat
Protocol: In the rat acute toxicity test, the LD50 was greater than 2,000 mg/kg (p.o. oral administration). The compound of Example 22 was tested in three groups.(five rats per group) of rats at dosages of (1) 2000 mg/kg, (2) 1000 mg/kg, and (3) 500 mg/kg; the compound was prepared in the form of a suspension in distilled water and administered orally.

[2] = Toxicity in humans (Phase I study); format: in vivo, human; settings: healthy male adult volunteers, capsules, 5 to 400 mg/man
Protocol: Toxicity in humans (Phase I study): This test was for confirmation of the safety of the drug (which was administered to healthy male adult volunteers). Taking into consideration the above toxicity tests, the compound of Example 22 was prepared in the form of capsules containing the compound in an increasing amount (from 5 mg/man to 400 mg/man (body weight 50-60 kg)).

Chain of plasmin (P00747 581-810 limits assumed, species assumed): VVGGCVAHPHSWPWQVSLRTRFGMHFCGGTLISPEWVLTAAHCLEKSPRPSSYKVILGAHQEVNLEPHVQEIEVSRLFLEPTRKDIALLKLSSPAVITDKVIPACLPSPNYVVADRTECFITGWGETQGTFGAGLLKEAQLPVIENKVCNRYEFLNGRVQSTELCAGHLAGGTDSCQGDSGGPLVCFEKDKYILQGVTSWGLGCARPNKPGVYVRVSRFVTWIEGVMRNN
Chain of plasmin (P00747 97-580 partner limits assumed, species assumed): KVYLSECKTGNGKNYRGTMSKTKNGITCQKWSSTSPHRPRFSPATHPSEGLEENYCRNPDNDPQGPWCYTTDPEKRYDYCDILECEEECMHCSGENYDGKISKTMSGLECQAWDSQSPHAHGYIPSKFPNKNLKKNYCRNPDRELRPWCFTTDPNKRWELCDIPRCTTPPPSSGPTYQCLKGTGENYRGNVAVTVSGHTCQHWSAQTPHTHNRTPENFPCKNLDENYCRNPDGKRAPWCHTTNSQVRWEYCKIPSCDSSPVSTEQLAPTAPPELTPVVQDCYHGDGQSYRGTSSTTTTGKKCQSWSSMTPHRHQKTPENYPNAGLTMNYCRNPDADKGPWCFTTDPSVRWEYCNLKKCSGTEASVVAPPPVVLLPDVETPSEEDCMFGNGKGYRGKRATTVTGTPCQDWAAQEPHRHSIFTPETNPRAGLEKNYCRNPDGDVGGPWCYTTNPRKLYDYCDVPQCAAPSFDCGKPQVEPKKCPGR

Cl.N=C(N)c1ccc2cc(OC(=O)c3ccc(CNC(=O)CCCC(=O)O)o3)ccc2c1 [Example 22, 6-Amidino-2-naphthyl 5-(4-carboxybutyrylaminomethyl)furan-2-carboxylate hydrochloride]
trypsin inhibition (in words) (trypsin): inhibitor | IC50 (trypsin; hydrolysis of TAME, read-out: Try: molar concentration inhibiting 50% of enzyme activity (IC50)): 430 nM | IC50 (plasmin): 430 nM | kallikrein inhibition (in words) (kallikrein): inhibitor | IC50 (kallikrein; hydrolysis of TAME, read-out: Kal: molar concentration inhibiting 50% of enzyme activity (IC50)): 470 nM | thrombin inhibition (in words) (thrombin): inhibitor | IC50 (thrombin; hydrolysis of TAME, read-out: Thr: molar concentration inhibiting 50% of enzyme activity (IC50)): 3500 nM | Percentage inhibition (arthritis score) (adjuvant arthritis): 97.3% | Protein concentration in urine (Masugi's nephritis): 3.0 ± 2.0 mg/mL | Protein concentration in urine ([1]; 30 mg/kg twice a day, 20 days, mean ± standard deviation, five animals, untreated 385.9 ± 187.23, control 8.5 ± 2.62): 152.1 ± 49.11 mg/mL | N-acetyl-β-D-glucosamineidase excretion (in words) ([1]; 30 mg/kg×2/day): decreased | alkaline phosphatase excretion (in words) ([1]; 30 mg/kg×2/day): decreased | urinary protein excretion (in words) ([1]; 30 mg/kg×2/day): decreased urinary protein excretion | LD50 at 336 h (in vivo; in vivo, po): > 2000 mg/kg | general conditions and survival (in words) (in vivo; oral, up to 2,000 mg/kg, two weeks observation): no changes were found | adverse side effects (in words) [2]: No adverse side effects were found
